In patent US20240315992A1, “AMINOXY ACID-BASED ANTIBACTERIAL COMPOUNDS AND METHODS THEREOF” (The University of Hong Kong, priority 2023, published 2024):
Values after ≈ are worked out from the molar mass of the structure shown.

Assays:
[1] = test system: Staphylococcus aureus ATCC 35556 biofilm formation; test: Inhibition of biofilm formation (crystal violet); format: cell-based; conditions: 24 hours treatment, also sub-inhibitory concentration
Procedure: Staphylococcus aureus ATCC 35556 was treated with various concentrations of compound 8, compound 35 or 1% DMSO as negative control for 24 hours. Biofilm was quantified using crystal violet. The data were normalized to DMSO (100% biofilm) and represent average values±S.D. (n=9 per group). Statistical analysis was performed by ANOVA with Dunnett's post-test to calculate p-values adjusted for multiple comparisons with DMSO as control condition (*p<0.05; **p<0.01; ***p<0.001).
Briefly, overnight cultures of Staphylococcus aureus ATCC 35556 in Tryptic Soy Broth (TSB) were sub-cultured from an overnight culture 1:100 for 2.5 hours. The bacteria were diluted 1:100 into fresh TSB and 200 μL bacteria in TSB was added to each well of a flat-bottomed 96-well plate (200 μL/well). Compounds (two-fold serial dilutions; final DMSO concentration of maximum 1%) were added. Plates were incubated at 37° C. for 24 hours. After 24 hours, the supernatant was removed and washed by PBS (200 μL) 2 times. Biofilms were dried at 37° C. for 30 minutes. 1% Crystal violet (25% ethanol in H2O) was diluted 1:5 in PBS and 200 μL was added to each well, followed by incubation at room temperature for 10 minutes. […] Following a 1:4 dilution step (33% acetic acid), optical density was measured at 595 nm by Beckman Coulter DTX 880 Multimode Detector. […]

[2] = test system: MSSA ATCC 29213; test: MIC by CLSI broth micro-dilution, MSSA ATCC 29213; format: cell-based; conditions: Staphylococcus aureus, read-out: Minimum inhibitory concentration
Procedure: Aminoxy acids were synthesized by the standard peptide coupling procedures. Minimum inhibitory concentration was determined using CLSI broth micro-dilution method in 96-wells microtitre plates. Minimum inhibitory concentration is defined as the lowest concentration of the compound that inhibits visible growth of the bacteria. All experiments were performed three times. 24 compounds including aminoxy acid monomers and dipeptides have been identified to show toxicity against multidrug resistant Staphylococcus aureus Mu3 and summarized in Table 1. The minimum inhibitory concentration of compound 8 and compound 35 on other gram-positive bacteria was also evaluated and summarized in Table 2. […] As shown in FIGS. 3A-3B there are no observable hemolysis for compound 8 and compound 35 towards human red blood cell.
Bacteria were streaked from the glycerol stock into BHI agar and were incubated overnight. Single colony was picked for the overnight culture in cation-adjusted Mueller Hinton broth (CAMH), LB or BHI. The overnight culture was sub-cultured and regrew to exponential phase for the experiment.
MIC was determined by CLSI broth micro-dilution method in 96-wells microtitre plates. […] Optical density was recorded by DTX 880 multimode detector (Beckman Coulter, California, US). […]

[3] = test system: MIHA; test: Mammalian cell cytotoxicity assay (MTT), MIHA; format: cell-based; conditions: at 16 folded MIC (50 μM compound 8, 12.5 μM compound 35)
Procedure: FIGS. 2A-2B are the bar graphs showing the cytotoxicity of compound 8 (FIG. 2A) and compound 35 (FIG. 2B) towards mammalian cell NIH3T3, MDCK and MIHA. % survival is mean±S.D normalized to DMSO as the negative control of a representative experiment. Biological triplicates were conducted.
In the treated culture dish, cells were washed by PBS and then trypsinized. DMEM was added to quench the reaction. Cells were centrifuged and resuspended into fresh DMEM. Cells were then seeded in 96-well microtitre plate (100 μL, 5000 cells per well) for 24 hours before addition of compounds. The compounds were two-fold serial diluted by DMSO in a DMSO-compatible 96-well plate. 1 μL of compound in DMSO is transferred into the 96-well microtitre preparation plate containing 100 μL DMEM medium. The medium in culture plate was removed and compounds in preparation plate were transferred to culture plate. Equal volume of DMSO was used as negative control.
After 24 hours of incubation of cells, cell viability was measured by MTT assay. In MTT assay, 20 μL 5 mg/mL MTT solution in PBS was added to cell medium and cultured for 3 hours. The medium was then removed and 50 μL DMSO was added and cultured for 10 minutes. Absorbance at 595 nm was measured spectrophotometrically (Beckman Coulter DTX 880 Multimode Detector) and normalized to DMSO group. Biological replicates were performed.

[4] = test system: Staphylococcus aureus strain USA300-LAC; test: Lethal bacteremia infection model, survival; format: in vivo, Balb/c mice; conditions: 10 mg/kg/day intraperitoneal, twice per day, 7 days
Procedure: FIG. 8 is a line graph showing compound 8 and compound 35 rescue mice from Staphylococcus aureus bacteremia infection model. Statistical analysis was performed with a log rank test (Mantel Cox test). (*p<0.05).
Staphylococcus aureus strain USA300-LAC were cultured to the early exponential phase of growth, washed twice with sterile phosphate-buffered saline solution (PBS), and resuspended in PBS at 3×10^7 CFU/200 μL for lethal bacteremia model. The female Balb/c mice, 6-8 weeks, were infected intravenously (i.v.) through the tail vein with Staphylococcus aureus and randomized into three groups (N=11 for vehicle; N=12 for compound 8 and compound 35 respectively). Six hour after infection, mice received intraperitoneal injections of compound 8 or compound 35 (10 mg/kg/day) or an injection of buffer (PBS with 2.5% DMSO and 2% Tween-80) as the control. The compound and injection buffer treatments were performed twice per day at 12-h intervals. The challenged mice were monitored for 7 days, at which point all the remaining mice were sacrificed. Statistical analysis was performed with a log rank test (Mantel Cox test). (*p<0.05).

Compound	formation of the Staphylococcus aureus biofilm [1]	MIC [2] [µM]	toxicity against mammalian cell MIHA [3]	rescue of mice from bacteremia infection (survival) [4]
CC(C)C[C@H](ONC(=O)[C@@H](COCc1ccccc1)ONC(=O)c1cc(C(F)(F)F)cc(C(F)(F)F)c1)C(=O)Nc1ccc2c(c1)OC(F)(F)O2 [Compound 35]	significantly inhibited the formation of the Staphylococcus aureus biofilm even under sub-inhibitory concentration	1.56 (≈ 1.15 µg/mL)	minimal toxicity	can rescue mice
CC(C)C[C@H](ONC(=O)[C@@H](COCc1ccccc1)ONC(=O)c1cc(C(F)(F)F)cc(C(F)(F)F)c1)C(=O)Nc1ccccc1 [Compound 8]	significantly inhibited the formation of the Staphylococcus aureus biofilm even under sub-inhibitory concentration	3.13 (≈ 2.05 µg/mL)	minimal toxicity	can rescue mice
